These compounds were tested against T1, P2X7 (UniProt Q99572) (assay: P2X7 activity of Table 1). Details: pIC50 values for P2X7.
T1 sequence (Q99572 1-595): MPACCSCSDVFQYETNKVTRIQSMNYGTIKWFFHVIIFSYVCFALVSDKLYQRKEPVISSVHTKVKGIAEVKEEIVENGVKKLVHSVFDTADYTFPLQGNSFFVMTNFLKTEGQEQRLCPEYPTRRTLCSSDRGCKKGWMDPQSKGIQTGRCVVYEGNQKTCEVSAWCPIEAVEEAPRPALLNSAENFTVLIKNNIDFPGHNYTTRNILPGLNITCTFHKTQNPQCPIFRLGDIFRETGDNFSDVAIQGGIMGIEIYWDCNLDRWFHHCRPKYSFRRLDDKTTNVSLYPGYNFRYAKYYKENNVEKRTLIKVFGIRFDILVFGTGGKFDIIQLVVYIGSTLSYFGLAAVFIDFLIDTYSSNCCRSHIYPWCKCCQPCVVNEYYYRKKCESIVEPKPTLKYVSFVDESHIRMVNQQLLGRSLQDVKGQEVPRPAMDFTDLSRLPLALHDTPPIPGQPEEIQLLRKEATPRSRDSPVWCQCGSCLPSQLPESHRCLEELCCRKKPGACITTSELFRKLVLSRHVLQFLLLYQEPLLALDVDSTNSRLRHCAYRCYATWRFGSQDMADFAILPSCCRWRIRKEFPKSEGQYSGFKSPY
Format: cell-based
Experimental: Stock solutions of compounds were prepared from powders as a 10 mM DMSO stock solution. These solutions were stored at RT during the two week period of these experiments to prevent freeze-thaw of the DMSO stocks. The DMSO stocks were added to the appropriate assay buffer at a concentration of 10 μM, and then diluted serially to the final concentrations that were tested. […] The aqueous solutions of compounds as well as ATP (Sigma A7699) and BzATP (Sigma B6396) were prepared fresh for each day of experiment.
1321N1 cells stably expressing the full length human P2X7 gene (1321N1-hP2X7) and HEK293 cells stably expressing the full length rat P2X7 gene (HEK293-rP2X7) were obtained from the Roche Cell Culture Facility. 1321N1-hP2X7 cells were grown in Dulbecco's Modified Eagle's Medium (DMEM) high glucose supplemented with 10% FBS and 250 μg/mL G418. HEK293-rP2X7 cells were grown in DMEM/F-12 supplemented with 10% FBS, 1 mM CaCl2, 2 mM MgCl2, 2 mM L-Glutamine and 500 μg/ml G418. Cells were split such that they never became >70% confluent.
On the day prior to the experiment, 1321N1-hP2X7 or HEK293-rP2X7 cells were released into suspension with calcium-free PBS+Versene and washed by centrifugation with calcium-free PBS to remove the Versene. Cells were resuspended in growth medium at a density of 2.5×10^5 cells/mL and seeded into black walled, clear bottom 96 well plates (50,000 cells/well) approximately 18 hr prior to intracellular calcium flux experiments.
On the day of the experiment, plates were washed with FLIPR buffer (calcium- and magnesium-free Hank's Balanced Salt Solution (HBSS) supplemented with 10 mM Hepes, 2.5 mM probenecid and 2 mM calcium chloride) using a BIO-TEK 96 channel plate washer and incubated with […] fluo-3 dye at 37° C. for one hr. The dye was then removed by plate washing and the cells were allowed to equilibrate for 20 min at room temperature with antagonist or vehicle (FLIPR buffer). Agonist (100 μM BzATP final concentration for hP2X7; 5 μM BzATP final concentration or rP2X7) was added online with the FLIPR and fluorescence measurements made at 1 sec intervals for 60 sec followed by 3 sec intervals for a further 4 min (5 min total). A final addition of 5 μM ionomycin was made and the maximal BzATP-evoked fluorescence normalized to the maximal ionomycin-evoked fluorescence.

SMILES | pIC50
Cc1cc(-c2ccc(C)c(NC(=O)C3=CN(C)C(=O)C[C@H]3c3ccc(F)cc3)c2)n[nH]1 [Compound 31, (S)-4-(4-Fluoro-phenyl)-1-methyl-6-oxo-1,4,5,6-tetrahydro-pyridine-3-carboxylic acid [2-methyl-5-(5-methyl-1H-pyrazol-3-yl)-phenyl]-amide] | 7.35
Cc1cc(-c2ccc(Cl)c(NC(=O)C3=CNC(=O)C[C@H]3c3ccc(F)cc3)c2)n[nH]1 [Compound 33, (S)-4-(4-Fluoro-phenyl)-6-oxo-1,4,5,6-tetrahydro-pyridine-3-carboxylic acid [2-chloro-5-(5-methyl-1H-pyrazol-3-yl)-phenyl]-amide] | 7.4067
Cc1cc(Cl)c(CN2CCOC2=O)cc1NC(=O)C1=CNC(=O)C[C@H]1c1ccc(F)cc1 [Compound 35, (S)-4-(4-Fluoro-phenyl)-6-oxo-1,4,5,6-tetrahydro-pyridine-3-carboxylic acid [4-chloro-2-methyl-5-(2-oxo-oxazolidin-3-ylmethyl)-phenyl]-amide] | 8.135
Cc1cc(-c2cc(NC(=O)C3=CNC(=O)C[C@H]3c3ccc(F)cc3)ccc2Cl)n[nH]1 [Compound 36, (S)-4-(4-Fluoro-phenyl)-6-oxo-1,4,5,6-tetrahydro-pyridine-3-carboxylic acid [4-chloro-3-(5-methyl-1H-pyrazol-3-yl)-phenyl]-amide] | 5.92
Cc1ccc(-n2ncc(=O)n(C)c2=O)cc1NC(=O)C1=CNC(=O)C[C@H]1c1ccc(F)cc1 [Compound 37, (S)-4-(4-Fluoro-phenyl)-6-oxo-1,4,5,6-tetrahydro-pyridine-3-carboxylic acid [2-methyl-5-(4-methyl-3,5-dioxo-4,5-dihydro-3H-[1,2,4]triazin-2-yl)-phenyl]-amide] | 7.76
Cc1ccc(-c2cc(C)n(CCO)n2)cc1NC(=O)C1=CN(C)C(=O)C[C@H]1c1ccc(F)cc1 [Compound 38, (S)-4-(4-Fluoro-phenyl)-1-methyl-6-oxo-1,4,5,6-tetrahydro-pyridine-3-carboxylic acid {5-[1-(2-hydroxy-ethyl)-5-methyl-1H-pyrazol-3-yl]-2-methyl-phenyl}-amide] | 7.46
Cc1ccc(-n2ncc(=O)n(CCO)c2=O)cc1NC(=O)C1=CNC(=O)C[C@H]1c1ccc(F)cc1 [Compound 39, (S)-4-(4-Fluoro-phenyl)-6-oxo-1,4,5,6-tetrahydro-pyridine-3-carboxylic acid {5-[4-(2-hydroxy-ethyl)-3,5-dioxo-4,5-dihydro-3H-[1,2,4]triazin-2-yl]-2-methyl-phenyl}-amide] | 7.76
Cc1cc(-c2cc(NC(=O)C3=CNC(=O)C[C@H]3c3ccc(F)cc3)c(C)cc2F)n[nH]1 [Compound 41, (S)-4-(4-Fluoro-phenyl)-6-oxo-1,4,5,6-tetrahydro-pyridine-3-carboxylic acid [4-fluoro-2-methyl-5-(5-methyl-1H-pyrazol-3-yl)-phenyl]-amide] | 8.048
Cc1ccc(N2CCCC2)cc1NC(=O)C1=CNC(=O)C[C@H]1c1ccc(F)cc1 [Compound 46, (S)-4-(4-Fluoro-phenyl)-6-oxo-1,4,5,6-tetrahydro-pyridine-3-carboxylic acid (2-methyl-5-pyrrolidin-1-yl-phenyl)-amide] | 7.873

Further lines, results first:

pIC50 | SMILES
7.265 | Cc1cc(-c2ccc(C)c(NC(=O)C3=CNC(=O)C[C@H]3c3ccc(F)cc3)c2)on1 [Compound 26, (S)-4-(4-Fluoro-phenyl)-6-oxo-1,4,5,6-tetrahydro-pyridine-3-carboxylic acid [2-methyl-5-(3-methyl-isoxazol-5-yl)-phenyl]-amide]
6.28 | Cc1ncn(-c2ccc(C)c(NC(=O)C3=CNC(=O)C[C@H]3c3ccc(F)cc3)c2)n1 [Compound 27, (S)-4-(4-Fluoro-phenyl)-6-oxo-1,4,5,6-tetrahydro-pyridine-3-carboxylic acid [2-methyl-5-(3-methyl-[1,2,4]triazol-1-yl)-phenyl]-amide]
7.145 | Cc1cn(-c2ccc(C)c(NC(=O)C3=CNC(=O)C[C@H]3c3ccc(F)cc3)c2)nn1 [Compound 28, (S)-4-(4-Fluoro-phenyl)-6-oxo-1,4,5,6-tetrahydro-pyridine-3-carboxylic acid [2-methyl-5-(4-methyl-[1,2,3]triazol-1-yl)-phenyl]-amide]
7.99 | Cc1cnn(-c2ccc(C)c(NC(=O)C3=CNC(=O)C[C@H]3c3ccc(F)cc3)c2)c1 [Compound 29, (S)-4-(4-Fluoro-phenyl)-6-oxo-1,4,5,6-tetrahydro-pyridine-3-carboxylic acid [2-methyl-5-(4-methyl-pyrazol-1-yl)-phenyl]-amide]
6.275 | Cc1nnc(-c2ccc(C)c(NC(=O)C3=CNC(=O)C[C@H]3c3ccc(F)cc3)c2)o1 [Compound 30, (S)-4-(4-Fluoro-phenyl)-6-oxo-1,4,5,6-tetrahydro-pyridine-3-carboxylic acid [2-methyl-5-(5-methyl-[1,3,4]oxadiazol-2-yl)-phenyl]-amide]
6.885 | CCCn1nccc1-c1ccc(C)c(NC(=O)C2=CNC(=O)C[C@H]2c2ccc(F)cc2)c1 [Compound 32, (S)-4-(4-Fluoro-phenyl)-6-oxo-1,4,5,6-tetrahydro-pyridine-3-carboxylic acid [2-methyl-5-(2-propyl-2H-pyrazol-3-yl)-phenyl]-amide]
7.78 | Cc1ccc(-c2nnc(C)n2C)cc1NC(=O)C1=CNC(=O)C[C@H]1c1ccc(F)cc1 [Compound 34, (S)-4-(4-Fluoro-phenyl)-6-oxo-1,4,5,6-tetrahydro-pyridine-3-carboxylic acid [5-(4,5-dimethyl-4H-[1,2,4]triazol-3-yl)-2-methyl-phenyl]-amide]
7.183 | Cc1cc(-c2ccc(C)c(NC(=O)C3=CNC(=O)C[C@H]3c3ccc(F)cc3)c2)no1 [Compound 40, (S)-4-(4-Fluoro-phenyl)-6-oxo-1,4,5,6-tetrahydro-pyridine-3-carboxylic acid [2-methyl-5-(5-methyl-isoxazol-3-yl)-phenyl]-amide]
7.3 | COCCn1nc(-c2ccc(C)c(NC(=O)C3=CNC(=O)C[C@H]3c3ccc(F)cc3)c2)cc1C [Compound 42, (S)-4-(4-Fluoro-phenyl)-6-oxo-1,4,5,6-tetrahydro-pyridine-3-carboxylic acid {5-[1-(2-methoxy-ethyl)-5-methyl-1H-pyrazol-3-yl]-2-methyl-phenyl}-amide]
7.54 | Cc1ccc(-c2cnccn2)cc1NC(=O)C1=CNC(=O)C[C@H]1c1ccc(F)cc1 [Compound 43, (S)-4-(4-Fluoro-phenyl)-6-oxo-1,4,5,6-tetrahydro-pyridine-3-carboyxlic acid (2-methyl-5-pyrazin-2-yl-phenyl)-amide]
7.567 | Cc1ccc(-c2ccc(C)c(NC(=O)C3=CNC(=O)C[C@H]3c3ccc(F)cc3)c2)nn1 [Compound 44, (S)-4-(4-Fluoro-phenyl)-6-oxo-1,4,5,6-tetrahydro-pyridine-3-carboxylic acid [2-methyl-5-(6-methyl-pyridazin-3-yl)-phenyl]-amide]
7.01 | Cc1cnc(-c2ccc(C)c(NC(=O)C3=CNC(=O)C[C@H]3c3ccc(F)cc3)c2)cn1 [Compound 45, (S)-4-(4-Fluoro-phenyl)-6-oxo-1,4,5,6-tetrahydro-pyridine-3-carboxylic acid [2-methyl-5-(5-methyl-pyrazin-2-yl)-phenyl]-amide]
